Measured values: patent US9839647B2, “Equol concentration increasing agent containing psicose as active ingredient” (CJ CHEILJEDANG CORPORATION, priority 2011, dated 2017)

What was measured:
[1] = system: intestinal bacteria capable of producing equol; settings: saccharide no add = 100.0; cited from earlier work
[2] = system: equol producing microorganism population; test: Change in produced equol amount in the presence of carbohydrate (TLC image analysis); type: cell-based, human; settings: for Variation (produced equol amount relative to culture solution containing xylose and daidzein): 1% carbohydrate, 0.1 mM daidzein, three days, xylose = 100, average of image analysis for two coloring methods
Procedure: The activity for regulating equol concentration by psicose was calculated as follows. To a microorganism population stock having capability to produce equol (obtained by centrifuging and washing feces taken from equol producers, KR Patent Registration No. 2008-0072635), daidzein as a substrate for equol, and psicose were added, followed by culturing and measuring the equol concentration in a culture solution. The measured equol concentration was inserted together with equol concentration in a culture solution containing daidzein and xylose into Equation for calculating equol variation percentage below: Equol variation percentage (%)=(Equol concentration in the culture solution containing psicose and daidzein)/(Equol concentration in the culture solution containing xylose and daidzein)×100
GAM (Gifu anaerobic medium) medium (4 ml) was inoculated with equol producing microorganism population stock stored in liquid nitrogen (obtained by centrifuging and washing feces taken from equol producers, KR Patent Registration No. 2008-0072635), followed by cultivating for 3-4 hours to activate.
When OD (optical density) approached 1.5, 200 μl of medium was taken and transferred to an Eppendorf tube. To the Eppendorf tube, 0.1 mM of daidzein was added, followed by vortexing to initiate reaction.
In order to measure equol production over time, 50 μl of medium was sampled 1, 2 and 3 days after the inoculation.
To the medium, 1 ml of ethyl acetate was added to extract isoflavonoids. Extraction was performed as follows: after vortexing and centrifugation, 800 μl of ethyl acetate was taken from the medium, followed by removal of the solvent through vacuum drying. Then, the resultant was dissolved in 10 μl of methanol. 2 μl was used to perform TLC.
Equol producing microorganism population was inoculated and the product was extracted in the same manner as in Example 1 except that, before the substrate was inoculated with the activated microorganism population, the final concentration of carbohydrate was adjusted to 1% by adding 2 mg each of xylose, tagatose, psicose, sucrose, fructo-oligosaccharide, and glucose. Further, only daidzein was used as the substrate. Unlike the case where pure daidzein was used, the reaction rate of producing equol was changed when carbohydrates were added. Namely, the production of equol occurred more slowly for a long period of time.
In order to compare variation in the produced equol amount in the product, quantitative analysis of TLC results was performed using an image analyzer.
Assuming the produced equol amount in the culture solution containing xylose and daidzein to be 100, the produced equol amount after addition of each carbohydrate for three days was compared. The comparison results are as follows.

Compound | Activity to regulate equol concentration [1] | Variation (produced equol amount relative to culture solution containing xylose and daidzein) [2] | equol production ([2]; reaction condition for three days)
O=C[C@@H](O)[C@H](O)[C@H](O)CO [Arabinose, arabinose] | 391.1% | – | –
Inulin | 0.0% | – | –
O=C(CO)[C@@H](O)[C@@H](O)[C@H](O)CO [Tagatose, tagatose] | – | 54% | –
OC[C@H]1O[C@H](O[C@H]2[C@H](O)[C@@H](O)[C@H](O)O[C@@H]2CO)[C@H](O)[C@@H](O)[C@@H]1O [Maltose] | 58.5% | – | –
OC[C@H]1O[C@H](O[C@H]2O[C@H](CO)[C@@H](O)[C@H](O)[C@H]2O)[C@H](O)[C@@H](O)[C@@H]1O [Trehalose, trehalose] | 403.5% | – | –
OC[C@H]1O[C@@H](O[C@H]2[C@H](O)[C@@H](O)C(O)O[C@@H]2CO)[C@H](O)[C@@H](O)[C@H]1O (some centres unmarked) [Lactose] | 0.0% | – | –
O=C[C@H](O)[C@@H](O)[C@H](O[C@@H]1O[C@H](CO)[C@@H](O)[C@H](O)[C@H]1O)[C@H](O)CO [Cellobiose] | 160.6% | – | –
OC[C@@H](O)[C@@H](O)CO [Erythritol, erythritol] | 214.2% | – | –
OC[C@H]1O[C@@](CO)(O[C@H]2O[C@H](CO)[C@@H](O)[C@H](O)[C@H]2O)[C@@H](O)[C@@H]1O [Sucrose, sucrose] | 0.0% | 54% | –
OC[C@@H](O)[C@@H](O)[C@H](O)[C@H](O)CO [Mannitol] | 182.2% | – | –
OC[C@H]1O[C@H](OC[C@H]2O[C@H](O[C@]3(CO)O[C@H](CO)[C@@H](O)[C@@H]3O)[C@H](O)[C@@H](O)[C@@H]2O)[C@H](O)[C@@H](O)[C@H]1O [Raffinose] | 0.0% | – | –
O=C(CO)[C@@H](O)[C@H](O)[C@H](O)CO [Fructose] | 51.5% | – | –
O=C(CO)[C@H](O)[C@@H](O)[C@H](O)CO [Sorbose, sorbose] | 467.7% | – | –
O[C@H]1[C@H](O)[C@@H](O)[C@H](O)[C@@H](O)[C@H]1O [Inositol, inositol] | 416.2% | – | –
O=C[C@H](O)[C@@H](O)[C@H](O)CO [Xylose, xylose] | 442.6% | 100% | –
O=C(CO)[C@H](O)[C@H](O)[C@H](O)CO [Psicose, D-psicose] | – | 139% | significantly promoted equol production
OC[C@H]1O[C@@H](O[C@@H]2[C@@H](CO)OC(O)(CO)[C@H]2O)[C@H](O)[C@@H](O)[C@H]1O (mixture of isomers) [Lactulose] | 8.1% | – | –
OC[C@@H](O)[C@@H](O[C@@H]1O[C@H](CO)[C@H](O)[C@H](O)[C@H]1O)[C@H](O)[C@@H](O)CO [Lactitol, lactitol] | 459.1% | – | –
O=C[C@H](O)[C@@H](O)[C@@H](O)[C@H](O)CO [Galactose, galactose] | 240.1% | – | –
OC[C@H]1O[C@H](OCC2O[C@@H](O)[C@H](O)[C@@H](O)[C@@H]2O)[C@H](O)[C@@H](O)[C@H]1O (some centres unmarked) [Melibiose] | 24.8% | – | –
C[C@H](O)[C@H](O)[C@@H](O)[C@@H](O)C=O [Rhamnose] | 116.4% | – | –
OC[C@@H](O)[C@@H](O)[C@H](O)[C@@H](O)CO [Sorbiol] | 372.5% | – | –
OC[C@@H](O)[C@@H](O)[C@@H](O)CO [Adonitol, adonitol] | 260.0% | – | –
Glycogen | 184.8% | – | –
OC[C@H]1O[C@@](CO)(O[C@H]2O[C@H](CO)[C@@H](O)[C@H](O)[C@H]2O)[C@@H](O[C@H]2O[C@H](CO)[C@@H](O)[C@H](O)[C@H]2O)[C@@H]1O [Melezitose, melezitose] | 411.6% | – | –
O=C[C@H](O)[C@H](O)[C@H](O)CO [Ribose, ribose] | 329.6% | – | –
